Measurements reported in ChEMBL document CHEMBL1201862, “PubChem BioAssay data set” (2004).
Activity calls are given as the source filed them.

Legend:
[1] = viability loss in MITF-independent A375 cells – cell-based, CellTiter-Glo luminescence, dry powder, set 2, counter-screen for MITF inhibitor project, dose response (AID 624489); format: functional; conditions: A-375;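 note: actives are compounds lowering A375 viability meaning general cytotoxicity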
[2] = MITF Measured in Cell-Based System Using Plate Reader - 2084-01_Inhibitor_Dose_DryPowder_Activity_Set6.; format: functional
[3] = growth inhibition of SK-MEL-5 melanoma cells – cell-based, CellTiter-Glo luminescence, dry powder, set 8, orthogonal assay for MITF inhibitor project, dose response (AID 651586); format: functional
[4] = inhibitors of TRPM1-promoter reporter in SK-MEL-5 – cell-based, luciferase, dry powder, set 9, MITF inhibitor project, dose response (AID 651588); format: functional
[5] = test system: CHO-K1; experiment: Counterscreen for antagonists of the orexin 1 receptor (OX1R; HCRTR1): Homogeneous time resolved fluorescence (HTRF)-based cell-based dose response assay to identify antagonists of the parental CHO-K1 cell line. [Related pubchem assays (depositor defined):AID434989, AID435008, AID463079, AID485270, AID492963, AID492964, AID492965, AID493232, AID504699, AID504701]; format: functional; conditions: Cricetulus griseus;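 note: potency for inhibition of ATP-stimulated IP1 production as antagonists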
[6] = target: T1, Orexin receptor type 2 (Homo sapiens, UniProt O43614); experiment: Counterscreen assay for antagonists of the orexin 1 receptor (OX1R; HCRTR1): Homogeneous Time Resolved Fluorescence (HTRF)-based cell-based dose response assay for antagonists of the orexin 2 receptor (OX2R; HCRTR2), run by assay provider.; format: functional
T1 sequence (O43614 whole entry): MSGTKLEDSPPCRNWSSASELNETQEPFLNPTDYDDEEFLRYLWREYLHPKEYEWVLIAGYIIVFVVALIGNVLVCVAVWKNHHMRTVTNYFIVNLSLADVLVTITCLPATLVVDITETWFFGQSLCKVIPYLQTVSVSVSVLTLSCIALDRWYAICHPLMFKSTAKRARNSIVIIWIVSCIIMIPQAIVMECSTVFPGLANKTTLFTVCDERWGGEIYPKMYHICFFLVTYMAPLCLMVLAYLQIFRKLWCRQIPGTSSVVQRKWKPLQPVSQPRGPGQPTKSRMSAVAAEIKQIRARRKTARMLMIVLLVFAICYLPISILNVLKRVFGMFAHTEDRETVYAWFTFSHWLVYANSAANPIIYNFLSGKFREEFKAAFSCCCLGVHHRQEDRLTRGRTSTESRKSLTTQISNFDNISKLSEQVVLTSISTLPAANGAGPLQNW

[7] = target: Protein Tat (Human immunodeficiency virus type 1 group M subtype B (isolate HXB2)(HIV-1), UniProt P04608); format: functional;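 note: tat binding to TAR RNA read out by fluorescence polarization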
Chain of Protein Tat (P04608 whole entry): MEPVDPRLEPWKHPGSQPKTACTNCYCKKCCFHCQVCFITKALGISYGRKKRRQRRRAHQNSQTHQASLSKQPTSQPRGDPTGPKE

[8] = viability of HCT116 lacking mutant beta-catenin – cell-based, human colon tumor, dose response (AID 1045); format: functional;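 note: HCT116 colon tumor cells with beta catenin knocked out; cells exposed to compound for 60 hours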
[9] = HPDE-C7 pancreatic duct cell viability loss – fluorescence, HTS (AID 430); format: functional, cell-based; conditions: Homo sapiens
[10] = target: Calcium/calmodulin-dependent protein kinase type II subunit gamma (Homo sapiens, UniProt Q13555); format: functional
Chain of Calcium/calmodulin-dependent protein kinase type II subunit gamma (Q13555 whole entry): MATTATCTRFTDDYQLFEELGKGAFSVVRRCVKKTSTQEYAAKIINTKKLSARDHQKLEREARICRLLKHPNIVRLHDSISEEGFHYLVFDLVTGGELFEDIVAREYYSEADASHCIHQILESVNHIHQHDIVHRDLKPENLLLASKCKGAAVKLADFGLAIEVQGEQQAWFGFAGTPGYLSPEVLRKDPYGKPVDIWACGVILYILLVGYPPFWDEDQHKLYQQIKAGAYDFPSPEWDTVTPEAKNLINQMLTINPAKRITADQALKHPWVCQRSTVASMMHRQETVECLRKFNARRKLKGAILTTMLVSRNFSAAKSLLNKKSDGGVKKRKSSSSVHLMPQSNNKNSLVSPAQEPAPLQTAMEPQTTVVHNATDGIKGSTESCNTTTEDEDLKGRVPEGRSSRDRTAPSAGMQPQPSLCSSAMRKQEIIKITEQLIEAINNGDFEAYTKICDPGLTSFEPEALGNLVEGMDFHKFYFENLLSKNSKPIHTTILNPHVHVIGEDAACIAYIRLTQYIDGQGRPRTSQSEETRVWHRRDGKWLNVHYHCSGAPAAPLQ

[11] = target: MAP/microtubule affinity-regulating kinase 3 (Homo sapiens, UniProt P27448); format: functional;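 note: MARK3 affinity measured as one member of a kinome panel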
[12] = target: 3-phosphoinositide-dependent protein kinase 1 (Homo sapiens, UniProt O15530); format: functional;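 note: value comes from the Navigating the Kinome panel, PDPK1 member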
[13] = target: Insulin-like growth factor 1 receptor (Homo sapiens, UniProt P08069); experiment: Navigating the Kinome. Panel member name: IGF1R; format: functional
[14] = target: Serine/threonine-protein kinase PLK4 (Homo sapiens, UniProt O00444); format: functional;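 note: PLK4 measured as one member of a kinome-wide kinase profiling panel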
[15] = target: Inhibitor of nuclear factor kappa-B kinase subunit epsilon (Homo sapiens, UniProt Q14164); experiment: Navigating the Kinome. Panel member name: IKBKE; format: functional
Chain of Inhibitor of nuclear factor kappa-B kinase subunit epsilon (Q14164 whole entry): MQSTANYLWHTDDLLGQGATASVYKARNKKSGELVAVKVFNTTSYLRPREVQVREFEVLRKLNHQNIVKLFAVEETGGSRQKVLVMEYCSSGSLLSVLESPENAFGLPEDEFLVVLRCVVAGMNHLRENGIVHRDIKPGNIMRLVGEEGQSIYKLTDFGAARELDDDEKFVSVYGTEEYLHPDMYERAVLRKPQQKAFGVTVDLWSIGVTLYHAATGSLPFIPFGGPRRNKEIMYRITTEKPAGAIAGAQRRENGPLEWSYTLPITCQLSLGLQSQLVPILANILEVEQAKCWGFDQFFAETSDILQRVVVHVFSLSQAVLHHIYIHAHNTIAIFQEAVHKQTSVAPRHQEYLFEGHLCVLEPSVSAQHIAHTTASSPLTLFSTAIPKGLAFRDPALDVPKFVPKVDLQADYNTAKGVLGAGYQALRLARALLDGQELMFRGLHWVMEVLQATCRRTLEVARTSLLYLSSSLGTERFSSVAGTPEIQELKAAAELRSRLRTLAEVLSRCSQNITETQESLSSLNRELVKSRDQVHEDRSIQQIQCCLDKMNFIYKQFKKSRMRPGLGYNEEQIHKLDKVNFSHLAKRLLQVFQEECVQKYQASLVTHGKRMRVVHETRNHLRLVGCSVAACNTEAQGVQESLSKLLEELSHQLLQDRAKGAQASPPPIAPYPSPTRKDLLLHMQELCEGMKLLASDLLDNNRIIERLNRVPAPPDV

[16] = target: Tyrosine-protein kinase Srms (Homo sapiens, UniProt Q9H3Y6); format: functional;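 note: SRMS measured as one member of a kinome-wide kinase profiling panel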
[17] = target: Tyrosine-protein kinase ABL1 (Homo sapiens, UniProt P00519); format: functional
[18] = target: cAMP-dependent protein kinase catalytic subunit alpha (Homo sapiens, UniProt P17612); format: functional
[19] = target: Mitogen-activated protein kinase 1 (Homo sapiens, UniProt P28482); format: functional
[20] = target: Homeodomain-interacting protein kinase 4 (Homo sapiens, UniProt Q8NE63); format: functional
[21] = target: Vascular endothelial growth factor receptor 2 (Homo sapiens, UniProt P35968); format: functional
Chain of Vascular endothelial growth factor receptor 2 (P35968 whole entry): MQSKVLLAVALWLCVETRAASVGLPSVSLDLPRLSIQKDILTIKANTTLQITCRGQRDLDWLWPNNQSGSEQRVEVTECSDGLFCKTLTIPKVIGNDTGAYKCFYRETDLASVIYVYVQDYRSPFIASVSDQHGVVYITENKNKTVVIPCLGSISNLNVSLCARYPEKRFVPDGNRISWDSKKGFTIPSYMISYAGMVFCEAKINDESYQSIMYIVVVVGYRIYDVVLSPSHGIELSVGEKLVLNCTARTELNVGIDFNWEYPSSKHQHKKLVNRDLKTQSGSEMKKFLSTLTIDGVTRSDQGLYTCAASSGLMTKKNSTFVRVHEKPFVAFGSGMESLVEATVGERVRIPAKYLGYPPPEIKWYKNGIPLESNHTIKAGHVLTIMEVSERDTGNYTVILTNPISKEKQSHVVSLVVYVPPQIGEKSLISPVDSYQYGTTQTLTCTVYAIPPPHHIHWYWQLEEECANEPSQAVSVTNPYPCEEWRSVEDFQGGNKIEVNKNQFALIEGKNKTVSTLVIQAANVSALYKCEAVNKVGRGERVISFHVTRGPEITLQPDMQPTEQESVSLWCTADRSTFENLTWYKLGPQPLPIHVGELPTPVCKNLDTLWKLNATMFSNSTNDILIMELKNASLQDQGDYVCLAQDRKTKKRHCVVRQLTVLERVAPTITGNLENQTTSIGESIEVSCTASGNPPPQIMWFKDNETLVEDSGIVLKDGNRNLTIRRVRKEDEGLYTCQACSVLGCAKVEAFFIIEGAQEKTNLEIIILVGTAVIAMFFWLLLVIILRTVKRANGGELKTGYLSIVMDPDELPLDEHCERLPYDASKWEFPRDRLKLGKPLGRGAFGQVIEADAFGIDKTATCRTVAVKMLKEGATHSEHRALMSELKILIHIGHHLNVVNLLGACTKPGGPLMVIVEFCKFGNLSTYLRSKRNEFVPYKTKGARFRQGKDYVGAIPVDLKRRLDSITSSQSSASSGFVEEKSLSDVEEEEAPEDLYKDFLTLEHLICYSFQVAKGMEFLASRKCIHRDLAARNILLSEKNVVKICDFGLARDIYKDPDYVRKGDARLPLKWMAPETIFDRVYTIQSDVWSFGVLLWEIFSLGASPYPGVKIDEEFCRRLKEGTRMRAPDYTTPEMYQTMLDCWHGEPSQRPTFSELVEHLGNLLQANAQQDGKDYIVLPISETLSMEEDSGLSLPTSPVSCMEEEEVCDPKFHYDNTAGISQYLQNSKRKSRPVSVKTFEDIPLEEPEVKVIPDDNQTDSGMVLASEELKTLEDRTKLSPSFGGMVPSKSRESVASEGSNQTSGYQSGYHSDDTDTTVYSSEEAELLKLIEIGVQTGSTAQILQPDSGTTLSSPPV

[22] = target: RAC-alpha serine/threonine-protein kinase (Homo sapiens, UniProt P31749); format: functional;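 note: AKT1 affinity measured as one member of a kinome-wide kinase profiling panel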
[23] = target: Cyclin-dependent kinase 7 (Homo sapiens, UniProt P50613); format: functional;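 note: value comes from a kinome-wide kinase profiling panel in which CDK7 is one member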
Chain of Cyclin-dependent kinase 7 (P50613 whole entry): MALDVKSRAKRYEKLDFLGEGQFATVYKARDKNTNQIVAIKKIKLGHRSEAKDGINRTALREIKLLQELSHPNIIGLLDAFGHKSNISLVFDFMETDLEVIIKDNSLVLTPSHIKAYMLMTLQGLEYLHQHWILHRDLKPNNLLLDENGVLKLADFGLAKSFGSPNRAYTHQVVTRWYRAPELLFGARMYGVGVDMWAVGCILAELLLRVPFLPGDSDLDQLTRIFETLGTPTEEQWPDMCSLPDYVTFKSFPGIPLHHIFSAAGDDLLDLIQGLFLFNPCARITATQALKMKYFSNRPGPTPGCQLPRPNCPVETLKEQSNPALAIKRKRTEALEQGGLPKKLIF

[24] = target: Vascular endothelial growth factor receptor 1 (Homo sapiens, UniProt P17948); format: functional;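 note: measured within a kinome-wide profiling panel, FLT1 as the panel member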
Chain of Vascular endothelial growth factor receptor 1 (P17948 whole entry): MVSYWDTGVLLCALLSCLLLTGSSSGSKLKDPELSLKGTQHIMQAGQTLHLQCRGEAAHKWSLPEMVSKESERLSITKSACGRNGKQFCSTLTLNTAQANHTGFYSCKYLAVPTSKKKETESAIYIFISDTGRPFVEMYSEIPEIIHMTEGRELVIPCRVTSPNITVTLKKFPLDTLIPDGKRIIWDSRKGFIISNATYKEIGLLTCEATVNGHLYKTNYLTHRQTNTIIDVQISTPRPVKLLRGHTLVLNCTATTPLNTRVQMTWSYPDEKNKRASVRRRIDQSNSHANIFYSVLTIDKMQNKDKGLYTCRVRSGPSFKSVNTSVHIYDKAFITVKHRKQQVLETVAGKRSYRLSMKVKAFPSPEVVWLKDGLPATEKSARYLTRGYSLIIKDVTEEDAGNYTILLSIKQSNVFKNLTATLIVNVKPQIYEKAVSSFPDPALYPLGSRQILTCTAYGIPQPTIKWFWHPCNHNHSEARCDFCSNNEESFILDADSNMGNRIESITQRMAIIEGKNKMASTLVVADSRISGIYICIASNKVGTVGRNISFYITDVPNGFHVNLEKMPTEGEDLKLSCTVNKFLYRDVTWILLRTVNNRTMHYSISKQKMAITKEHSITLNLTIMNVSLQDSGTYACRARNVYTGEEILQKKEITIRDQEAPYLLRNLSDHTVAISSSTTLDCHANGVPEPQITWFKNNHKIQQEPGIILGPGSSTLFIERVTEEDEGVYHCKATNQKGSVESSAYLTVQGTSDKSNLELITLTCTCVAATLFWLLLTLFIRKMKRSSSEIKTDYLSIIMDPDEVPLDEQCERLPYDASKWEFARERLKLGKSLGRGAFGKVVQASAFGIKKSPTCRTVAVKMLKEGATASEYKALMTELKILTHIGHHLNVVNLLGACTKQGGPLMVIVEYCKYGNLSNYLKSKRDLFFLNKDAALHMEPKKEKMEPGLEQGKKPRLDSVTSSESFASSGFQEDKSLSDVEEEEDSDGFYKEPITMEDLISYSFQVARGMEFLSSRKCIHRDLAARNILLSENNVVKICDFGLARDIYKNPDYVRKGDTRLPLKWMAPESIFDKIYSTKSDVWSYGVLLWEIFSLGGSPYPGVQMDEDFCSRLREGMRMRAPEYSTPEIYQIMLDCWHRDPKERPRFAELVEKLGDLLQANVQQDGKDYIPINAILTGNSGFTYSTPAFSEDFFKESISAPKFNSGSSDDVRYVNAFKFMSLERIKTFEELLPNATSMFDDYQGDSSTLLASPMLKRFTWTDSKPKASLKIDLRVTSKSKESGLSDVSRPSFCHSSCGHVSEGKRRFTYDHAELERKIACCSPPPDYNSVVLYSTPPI

[25] = target: Cell division cycle 7-related protein kinase (Homo sapiens, UniProt O00311); format: functional;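 note: value obtained from a kinome-wide kinase panel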
Chain of Cell division cycle 7-related protein kinase (O00311 whole entry): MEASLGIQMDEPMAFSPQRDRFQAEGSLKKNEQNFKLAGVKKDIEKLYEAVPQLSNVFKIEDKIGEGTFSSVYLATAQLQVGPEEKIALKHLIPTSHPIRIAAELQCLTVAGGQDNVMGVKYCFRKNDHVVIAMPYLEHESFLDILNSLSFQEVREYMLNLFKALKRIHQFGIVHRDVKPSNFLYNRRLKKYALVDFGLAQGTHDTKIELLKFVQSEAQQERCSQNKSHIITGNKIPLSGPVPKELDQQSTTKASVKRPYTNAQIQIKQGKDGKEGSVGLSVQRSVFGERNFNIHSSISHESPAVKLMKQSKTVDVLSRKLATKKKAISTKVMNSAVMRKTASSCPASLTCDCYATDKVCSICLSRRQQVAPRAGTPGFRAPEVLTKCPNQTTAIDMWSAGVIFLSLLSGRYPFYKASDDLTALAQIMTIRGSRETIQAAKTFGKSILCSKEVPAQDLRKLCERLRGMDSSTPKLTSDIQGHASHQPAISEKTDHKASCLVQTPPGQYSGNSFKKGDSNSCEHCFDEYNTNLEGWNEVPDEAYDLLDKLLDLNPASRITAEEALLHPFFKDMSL

[26] = target: Testis-specific serine/threonine-protein kinase 1 (Homo sapiens, UniProt Q9BXA7); format: functional
[27] = target: Tyrosine-protein kinase Fer (Homo sapiens, UniProt P16591); format: functional;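 note: FER tested as one member of a kinome panel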
[28] = target: Cyclin-dependent kinase 8 (Homo sapiens, UniProt P49336); experiment: Navigating the Kinome. Panel member name: CDK8; format: functional
[29] = target: Induced myeloid leukemia cell differentiation protein Mcl-1 (Homo sapiens, UniProt Q07820); format: functional
[30] = target: Dual specificity tyrosine-phosphorylation-regulated kinase 1A (Rattus norvegicus, UniProt Q63470); format: biochemical, Homo sapiens

C=CCNC1=C(Cl)C(=O)c2ccccc2C1=O
AC50 [1]: > 70000 nM (inactive)
AC50 [2]: 1560 nM (active)
AC50 [3]: 4580 nM (active)
AC50 [4]: 5580 nM (active)

CN(C)c1ccc(-c2nnc(-c3cccs3)o2)cc1
IC50 [5]: > 66200 nM (inactive)
IC50 [6]: > 50000 nM (inactive)

CCOC(=O)C(C(=O)OCC)c1cc(Br)c2noc3c2c1C(=O)c1ccccc1-3
IC50 [7]: 6440 nM (inconclusive)
EC50 [8]: 4390 nM (active)
EC50 [9]: 3030 nM (active)

COc1ccc(C(=O)Nc2n[nH]c3ccc(-c4cn(Cc5ccccc5)nn4)cc23)cc1OC
Ki [10]: 316 nM (active)
Ki [11]: 63.1 nM (active)
Ki [12]: 1000 nM (active)
Ki [13]: > 2000 nM (inactive)
Ki [14]: 79.4 nM (active)
Ki [15]: 200 nM (active)
Ki [16]: > 1580 nM (inactive)
Ki [17]: > 631 nM (inactive)
Ki [18]: 501 nM (active)
Ki [19]: 100 nM (active)
Ki [20]: 1000 nM (active)
Ki [21]: 398 nM (active)
Ki [22]: 6310 nM (active)
Ki [23]: 126 nM (active)
Ki [24]: 200 nM (active)
Ki [25]: 1.26 nM (active)
Ki [26]: > 1580 nM (inactive)
Ki [27]: 251 nM (active)
Ki [28]: > 3980 nM (inactive)

CS(=O)(=O)c1ccc2c(c1)SC1=NC(=O)/C(=C/c3ccc(O)c(O)c3)C(=N)N12
IC50 [29]: 5260 nM (active)
AC50 [30]: 2710 nM (active)
